Reference: patent US9468687B2, “Immuno gene therapy for treatment of cancer and hyperproliferative diseases” (priority 2004, dated 2016)

Legend:
[1] = system: SCCVII squamous cell carcinoma; assay: Subcutaneous squamous cell carcinoma (SCCVII) tumor growth; format: in vivo, mouse; details: pmIL-12/PPC 25 μg intratumoral weekly x4, two injections
Description: The effect of local administration of pIL-12/PPC complexes on the growth of subcutaneously implanted squamous cell (SCCVII) carcinoma was examined. 4×10^5 squamous carcinoma cells in 100 μl were implanted sc on the right flank of female Female CH3 mice (6-9 weeks, 17-22 grams) The mIL-12 plasmid was complexed with PPC at a 11:1 N:P ratio and administered locally into the tumors at a DNA dose of 25 μg in an injection volume of 50 μl once every week for four weeks starting ˜11 days after tumor implantation. Treatment groups of 12 mice were used and tumor growth was monitored twice per week using caliper measurement.
For combination therapy both gene therapy and chemotherapy treatment were given as described above. Treatment groups of 12 mice were used and tumor growth was monitored twice per week using caliper measurement.

[2] = system: ID8 peritoneal disseminated ovarian tumors; assay: pIL-12/PPC plus paclitaxel in peritoneal disseminated ovarian tumors; format: in vivo, mouse
Description: Intraperitoneal IL-12 gene therapy was combined with paclitaxel chemotherapy to enhance the therapeutic response to disseminated ovarian tumors in mice. The mice were injected intraperitoneally with 5×10^6 ID8 cells in a volume of 500 μl. The treatments were started when tumor burden (mouse weight) reached approximately 20 grams (˜21 days after injection of cells). The mice were injected intraperitoneally with 25 μg of pmIL-12 complexed with PPC at a 11:1 N:P ratio in a volume of 500 μl. The gene treatment was repeated after 7 days constituting a total of two injections (Day 1, 8) per the study. Paclitaxel (Taxol®) was administered only once (Day 0) by intravenous injection at a dose of 8 mg/kg dose in an injection volume of 250 μL. For combination therapy, both gene therapy and chemotherapy treatments were given as described above. Animals were periodically weighed to assess the effect of gene treatment on tumor burden. […] The inhibition of tumor burden by pmIL-12/PPC complexes was slightly higher than that of paclitaxel.

CT26 tumors = details: cited from earlier work
Renca tumors = details: cited from earlier work

O=P1(N(CCCl)CCCl)NCCCO1 (stereo not drawn) [cyclophosphamide]
tumor growth in combination study ([1]; cyclophosphamide 200 mg/kg iv): only a partial inhibition of tumor growth | animals that completely rejected the tumor (complete rejection rate) ([1]; cyclophosphamide iv): 10%

CC(=O)O[C@H]1C(=O)[C@@]2(C)[C@H]([C@H](OC(=O)c3ccccc3)[C@]3(O)C[C@H](OC(=O)[C@H](O)[C@@H](NC(=O)c4ccccc4)c4ccccc4)C(C)=C1C3(C)C)[C@]1(OC(C)=O)CO[C@@H]1C[C@@H]2O [paclitaxel]
peritoneal tumor burden ([2]; pmIL-12 25 μg ip day 1, 8, paclitaxel 8 mg/kg iv day 0): tumor reduction | survival ([2]; pmIL-12/PPC ip, paclitaxel 8 mg/kg iv): improved survival

IFN-α
rejection rate (CT26 tumors): 0% | tumor rejection (Renca tumors): 25%
